Laboratory results from PMC3667390 (Cancer immunology, immunotherapy : CII, 2009).

Test system: peptide-specific CD4 T cells
Type: cell-based, human
Conditions: ELIspot and proliferation; peptide 10 μg/ml, CEA protein 1 μg/ml, 20-24 hours; day 15 of in vitro stimulation; three replicates

MELLLVNKLKWNLAA [Peptide C140]
reactivity of peptide-specific CD4 T cells: did not respond
